# *1 amine or outer side, *2 acyl side, *3 side chain or, on linkers, in order; H or OH if unused. Where a SMILES comes first, the peptide text is derived from it. [ ]: non-standard residue; d: D form. The star is where a group is joined. ξ: configuration not given here. Phac(3-amino) = O=C(Cc1cccc(N[*:1])c1)[*:2]; X13 = CC(C(=O)[*:2])c1ccc(N[*:1])cc1; X2 = O=C(/C=C/c1ccc(N[*:1])cc1)[*:2]; NH(2,6-Me2-phenyl) = Cc1cccc(C)c1N*; X3 = O=C(CCCc1ccc(N[*:1])cc1)[*:2]; X1 = O=C(Cc1ccc(N[*:1])cc1)[*:2]; X8 = O=C(COc1ccccc1N[*:1])[*:2]; Ile(3ξ) = CCC(C)[C@H](N)C(=O)O; X4 = O=C(Cc1ccccc1N[*:1])[*:2]; NH(2-Me-phenyl) = Cc1ccccc1N*; X12 = c1ccc(Oc2ccccc2N*)cc1; β3hP = O=C(O)C[C@@H]1CCCN1; 4Abz = Nc1ccc(C(=O)O)cc1; Nle = CCCC[C@H](N)C(=O)O; CO = O=C([*:1])[*:2]
# Biological target: Integrin alpha-4/beta-1 (Homo sapiens, UniProt P05556+P13612, T112H)
# Experiment: Jurkat Cell Adhesion Inhibition Assay
# Experimental: Binding affinities (IC50) of the ligands were studied in a Jurkat cell adhesion assay by inhibiting the alpha-4/beta-1 mediated cell adhesion to CS-1 peptides. The 96-well plates were coated with neutravidin, followed by biotinconjugated CS-1 peptides. Jurkat cells with series dilutions of tested ligands in binding buffer were added and allowed to bind for 30 min. Bound cells were recorded using a 96-well plate reader at 570 nm. IC50 values were calculated from inhibition curves resulting from the concentration-dependent inhibition
Compound,"IC50 (pH 7.5, 22 °C)",IC50
"CCCC[C@H](NC(=O)Cc1ccc(NC(=O)Nc2ccccc2C)cc1)C(=O)N[C@@H](CC(=O)O)C(=O)N[C@H](C(=O)N1CCC[C@@H]1C(N)=O)C(C)CC (stereo partly drawn) [(3S)-3-{[(2S,3S)-1-[(2R)-2-carbamoylpyrrolidin-1-yl]-3-methyl-1-oxopentan-2-yl]carbamoyl}-3-[(2S)-2-[1-(4-{[(2-methylphenyl)carbamoyl]amino}phenyl)acetamido]hexanamido]propanoic acid]",2.9 nM,–
"CCCC[C@H](NC(=O)Cc1ccc(NC(=O)Nc2ccccc2C)cc1)C(=O)N[C@@H](CC(=O)O)C(=O)N[C@H](C(=O)N1CCC[C@H]1CC(N)=O)C(C)CC (stereo partly drawn) [(3S)-3-{[(2S,3S)-1-[(2S)-2-(carbamoylmethyl)pyrrolidin-1-yl]-3-methyl-1-oxopentan-2-yl]carbamoyl}-3-[(2S)-2-[1-(4-{[(2-methylphenyl)carbamoyl]amino}phenyl)acetamido]hexanamido]propanoic acid] ({NH(2-Me-phenyl)-CO}-[X1][Nle]D[Ile(3ξ)][β3hP]-NH2)",3.1 nM,–
"CCCC[C@H](NC(=O)Cc1ccc(NC(=O)Nc2ccccc2C)cc1)C(=O)N[C@@H](CC(=O)O)C(=O)N[C@H](C(=O)N1CC(O)C[C@H]1C(N)=O)C(C)CC (stereo partly drawn) [(3S)-3-{[(2S,3S)-1-[(2S)-2-carbamoyl-4-hydroxypyrrolidin-1-yl]-3-methyl-1-oxopentan-2-yl]carbamoyl}-3-[(2S)-2-[1-(4-{[(2-methylphenyl)carbamoyl]amino}phenyl)acetamido]hexanamido]propanoic acid]",3 nM,–
"CCCC[C@H](NC(=O)Cc1ccc(NC(=O)Nc2ccccc2C)cc1)C(=O)N[C@@H](CC(=O)O)C(=O)N[C@H](C(=O)N1CCCC[C@H]1C(N)=O)C(C)CC (stereo partly drawn) [(3S)-3-{[(2S,3S)-1-[(2S)-2-carbamoylpiperidin-1-yl]-3-methyl-1-oxopentan-2-yl]carbamoyl}-3-[(2S)-2-[1-(4-{[(2-methylphenyl)carbamoyl]amino}phenyl)acetamido]hexanamido]propanoic acid]",1.4 nM,–
"CCCC[C@H](NC(=O)Cc1ccccc1NC(=O)Nc1ccccc1C)C(=O)N[C@@H](CC(=O)O)C(=O)N[C@H](C(=O)N1CCC[C@H]1C(N)=O)C(C)CC (stereo partly drawn) [(3S)-3-{[(2S,3S)-1-[(2S)-2-carbamoylpyrrolidin-1-yl]-3-methyl-1-oxopentan-2-yl]carbamoyl}-3-[(2S)-2-[1-(2-{[(2-methylphenyl)carbamoyl]amino}phenyl)acetamido]hexanamido]propanoic acid] ({NH(2-Me-phenyl)-CO}-[X4][Nle]D[Ile(3ξ)]P-NH2)",–,3000 nM
"CCCC[C@H](NC(=O)Cc1cccc(NC(=O)Nc2ccccc2C)c1)C(=O)N[C@@H](CC(=O)O)C(=O)N[C@H](C(=O)N1CCC[C@H]1C(N)=O)C(C)CC (stereo partly drawn) [(3S)-3-{[(2S,3S)-1-[(2S)-2-carbamoylpyrrolidin-1-yl]-3-methyl-1-oxopentan-2-yl]carbamoyl}-3-[(2S)-2-[1-(3-{[(2-methylphenyl)carbamoyl]amino}phenyl)acetamido]hexanamido]propanoic acid] ({NH(2-Me-phenyl)-CO}-[Phac(3-amino)][Nle]D[Ile(3ξ)]P-NH2)",–,140 nM
"CCCC[C@H](NC(=O)Cc1ccc(NC(=O)Nc2c(C)cccc2C)cc1)C(=O)N[C@@H](CC(=O)O)C(=O)N[C@H](C(=O)N1CCC[C@H]1C(N)=O)C(C)CC (stereo partly drawn) [(3S)-3-{[(2S,3S)-1-[(2S)-2-carbamoylpyrrolidin-1-yl]-3-methyl-1-oxopentan-2-yl]carbamoyl}-3-[(2S)-2-[1-(4-{[(2,6-dimethylphenyl)carbamoyl]amino}phenyl)acetamido]hexanamido]propanoic acid] ({NH(2,6-Me2-phenyl)-CO}-[X1][Nle]D[Ile(3ξ)]P-NH2)",–,7.2 nM
"CCCC[C@H](NC(=O)Cc1ccc(NC(=O)Nc2ccccc2C)cc1)C(=O)N[C@@H](CC(=O)O)C(=O)N[C@H](C(=O)N1CCC[C@H]1C(N)=O)C(C)CC (stereo partly drawn) [(3S)-3-{[(2S,3S)-1-[(2S)-2-carbamoylpyrrolidin-1-yl]-3-methyl-1-oxopentan-2-yl]carbamoyl}-3-[(2S)-2-[1-(4-{[(2-methylphenyl)carbamoyl]amino}phenyl)acetamido]hexanamido]propanoic acid]",1.4 nM,–

# Next, values leading:
"IC50 (pH 7.5, 22 °C)",IC50,Compound
–,500 nM,"CCCC[C@H](NC(=O)Cc1ccc(NC(=O)Nc2ccccc2Oc2ccccc2)cc1)C(=O)N[C@@H](CC(=O)O)C(=O)N[C@H](C(=O)N1CCC[C@H]1C(N)=O)C(C)CC (stereo partly drawn) [(3S)-3-{[(2S,3S)-1-[(2S)-2-carbamoylpyrrolidin-1-yl]-3-methyl-1-oxopentan-2-yl]carbamoyl}-3-[(2S)-2-[1-(4-{[(2-phenoxyphenyl)carbamoyl]amino}phenyl)acetamido]hexanamido]propanoic acid] ({X12-CO}-[X1][Nle]D[Ile(3ξ)]P-NH2)"
–,463 nM,"CCCC[C@H](NC(=O)COc1ccccc1NC(=O)Nc1ccccc1C)C(=O)N[C@@H](CC(=O)O)C(=O)N[C@H](C(=O)N1CCC[C@H]1C(N)=O)C(C)CC (stereo partly drawn) [(3S)-3-{[(2S,3S)-1-[(2S)-2-carbamoylpyrrolidin-1-yl]-3-methyl-1-oxopentan-2-yl]carbamoyl}-3-[(2S)-2-[2-(2-{[(2-methylphenyl)carbamoyl]amino}phenoxy)acetamido]hexanamido]propanoic acid] ({NH(2-Me-phenyl)-CO}-[X8][Nle]D[Ile(3ξ)]P-NH2)"
–,3.1 nM,"CCCC[C@H](NC(=O)C(C)c1ccc(NC(=O)Nc2ccccc2C)cc1)C(=O)N[C@@H](CC(=O)O)C(=O)N[C@H](C(=O)N1CCC[C@H]1C(N)=O)C(C)CC (stereo partly drawn) [(3S)-3-{[(2S,3S)-1-[(2S)-2-carbamoylpyrrolidin-1-yl]-3-methyl-1-oxopentan-2-yl]carbamoyl}-3-[(2S)-2-[2-(4-{[(2-methylphenyl)carbamoyl]amino}phenyl)propanamido]hexanamido]propanoic acid] ({NH(2-Me-phenyl)-CO}-[X13][Nle]D[Ile(3ξ)]P-NH2)"
–,100 nM,"CCCC[C@H](NC(=O)CCCc1ccc(NC(=O)Nc2ccccc2C)cc1)C(=O)N[C@@H](CC(=O)O)C(=O)N[C@H](C(=O)N1CCC[C@H]1C(N)=O)C(C)CC (stereo partly drawn) [(3S)-3-{[(2S,3S)-1-[(2S)-2-carbamoylpyrrolidin-1-yl]-3-methyl-1-oxopentan-2-yl]carbamoyl}-3-[(2S)-2-[4-(4-{[(2-methylphenyl)carbamoyl]amino}phenyl)butanamido]hexanamido]propanoic acid] ({NH(2-Me-phenyl)-CO}-[X3][Nle]D[Ile(3ξ)]P-NH2)"
–,4.4 nM,"CCCC[C@H](NC(=O)/C=C/c1ccc(NC(=O)Nc2ccccc2C)cc1)C(=O)N[C@@H](CC(=O)O)C(=O)N[C@H](C(=O)N1CCC[C@H]1C(N)=O)C(C)CC (stereo partly drawn) [(3S)-3-{[(2S,3S)-1-[(2S)-2-carbamoylpyrrolidin-1-yl]-3-methyl-1-oxopentan-2-yl]carbamoyl}-3-[(2S)-2-[(2E)-3-(4-{[(2-methylphenyl)carbamoyl]amino}phenyl)prop-2-enamido]hexanamido]propanoic acid] ({NH(2-Me-phenyl)-CO}-[X2][Nle]D[Ile(3ξ)]P-NH2)"
–,3000 nM,"CCCC[C@H](NC(=O)c1ccc(NC(=O)Nc2ccccc2C)cc1)C(=O)N[C@@H](CC(=O)O)C(=O)N[C@H](C(=O)N1CCC[C@H]1C(N)=O)C(C)CC (stereo partly drawn) [(3S)-3-{[(2S,3S)-1-[(2S)-2-carbamoylpyrrolidin-1-yl]-3-methyl-1-oxopentan-2-yl]carbamoyl}-3-[(2S)-2-[(4-{[(2-methylphenyl)carbamoyl]amino}phenyl)formamido]hexanamido]propanoic acid] ({NH(2-Me-phenyl)-CO-4Abz}-[Nle]D[Ile(3ξ)]P-NH2)"

# Reference: BindingDB's records for doi:10.1002/bip.20588 (University of California Davis, 2006)
